“Also recorded” adds a separate entry of the source. Values belong to the compound of their own block, whether it stands above or below them.
What was measured:
[1] = Deiodination assay: deiodination of T4 by DIO3 mimic compound A; assay type: biochemical; settings: for inhibition of the deiodinase activity (deiodination of T4) of DIO3 mimic compound A: 100 mM phosphate buffer pH 7.5, 10 mM DTT, 37° C., rT3 formation by HPLC; for IC50 for inhibiting the DIO3 mimic: mimic used in micromolar concentrations, FIG. 5
Procedure: The deiodination of thyroxine by compound A (a DIO3 mimetic; FIGS. 2 and 3) in the presence of various thiourea derivatives was studied. When the commonly used antithyroid drugs such as thiourea derivatives (e.g., 6-n-propyl-2-thiouracil (PTU), 6-methyl-2-thiouracil (MTU) and 1-methyl-3H-imidazole-2-thione or methimazole (MMI)) were used, no inhibition of the deiodinase activity was observed.
The deiodination reactions were carried out in 100 mM phosphate buffer (pH 7.5) with 10 mM dithiothreitol (DTT) at 37° C. Diselenol (Compound A) was freshly prepared by reducing the corresponding diselenide, with NaBH4 prior to use. The reaction products were analyzed by reverse-phase HPLC (Lichrospher C18 column, 4.6 μm, 150 mm×5 mm) with gradient elution using acetonitrile/ammonium acetate (pH 4.0) as the mobile phase. The formation of rT3 was monitored at λ=275 nm and the amounts of deiodinated products formed in the reactions in the presence or absence of test compounds were calculated by comparing the peak areas.

[2] = biological target: T1, DIO1 (Homo sapiens, UniProt P49895); settings: cited from earlier work
T1 sequence (P49895 1-249): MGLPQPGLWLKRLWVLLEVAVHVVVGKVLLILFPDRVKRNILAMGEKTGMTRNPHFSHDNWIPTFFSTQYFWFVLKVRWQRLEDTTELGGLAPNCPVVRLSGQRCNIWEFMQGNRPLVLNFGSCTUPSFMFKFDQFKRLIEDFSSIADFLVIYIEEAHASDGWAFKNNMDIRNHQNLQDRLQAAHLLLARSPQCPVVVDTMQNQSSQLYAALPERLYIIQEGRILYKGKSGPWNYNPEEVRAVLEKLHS

[3] = biological target: T2, DIO3 (Homo sapiens, UniProt P55073); settings: cited from earlier work
T2 sequence (P55073 1-304): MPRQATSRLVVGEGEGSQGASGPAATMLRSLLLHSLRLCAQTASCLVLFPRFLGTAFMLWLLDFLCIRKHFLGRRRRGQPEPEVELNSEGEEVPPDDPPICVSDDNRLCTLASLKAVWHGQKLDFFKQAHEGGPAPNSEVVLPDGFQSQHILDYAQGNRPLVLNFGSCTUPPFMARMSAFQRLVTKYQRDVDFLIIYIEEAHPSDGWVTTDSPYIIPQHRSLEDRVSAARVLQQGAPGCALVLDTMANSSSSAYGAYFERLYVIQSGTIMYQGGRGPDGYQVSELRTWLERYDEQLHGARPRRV

[4] = tested on: OVCAR3 cells; assay: OVCAR3 cell density and morphology by light microscopy; assay type: cell-based, Human; settings: OVCAR3, 0.5 μM, 48 h
Procedure: (§1) Cell lines: Human ovarian adenocarcinoma cells employed in the study were OVCAR-3 (ATCC HTB-161), A2780 (Sigma Aldrich) and SKOV-3 (ATCC HTB-77). Human normal embryonic kidney cells, HEK 293 (ATCC CRL1573) were used. All cells were cultured in RPMI1640 supplemented with 10% heat-inactivated FBS and antibiotics. Before conducting an experiment, cells were cultured for 24 h in RPMI1640 supplemented with 1.5% heat-inactivated charcoal stripped FBS and antibiotics.
Microscopy: The cells were visualized using a microscope equipped with a camera (model IX71; Olympus) with a 20_/0.50 objective lens and Cell^A (version 3.1) Olympus software imaging.
(§2) OVCAR3 cells were collected and seeded in 96 well plates (10,000/well). The six compounds were then dissolved in DMSO and added to a final 0.5 μM concentration for 48 h of incubation. After incubation the cells were imaged by light microscopy (FIG. 13B). […] These cells were then examined for cell viability by WST-1 assay (FIG. 13C).

[5] = tested on: OVCAR3 cells; assay: OVCAR3 cell viability by WST-1 assay; assay type: cell-based, Human; settings: OVCAR3, 0.5 μM, 48 h
Procedure: as §1
Viability: WST-1 (Roche; 10% final concentration) was incubated with cells at 37° C. for 2 h and read with a MicroELISA reader at 440 nm.
as §2

[6] = Water solubility (qualitative comparison); assay type: physicochemical; settings: compared with PBENZ (compound 4)
[7] = biological target: DIO2 (Homo sapiens, UniProt Q92813); settings: cited from earlier work
DIO2, sequence (Q92813 whole entry, species assumed): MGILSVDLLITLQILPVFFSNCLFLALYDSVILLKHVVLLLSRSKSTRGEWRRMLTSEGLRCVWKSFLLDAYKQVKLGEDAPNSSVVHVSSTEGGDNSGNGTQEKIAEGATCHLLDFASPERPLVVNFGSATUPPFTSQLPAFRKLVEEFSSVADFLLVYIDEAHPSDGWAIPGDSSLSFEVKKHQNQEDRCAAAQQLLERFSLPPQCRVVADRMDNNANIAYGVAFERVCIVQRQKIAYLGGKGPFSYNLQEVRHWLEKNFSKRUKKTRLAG

[8] = Serum and brain thyroid hormone levels after 3 weeks ICV administration by osmotic minipumps; assay type: in vivo, BALB/c mice; settings: mice; for change in brain free T3 levels (in words): one sided non-paired t test; for Serum Free T3, Mean / Serum Free T4, Mean / Brain Free T3, Mean / Brain Free T4, Mean: ICV by osmotic minipump for 3 weeks, IOP 2 mg/kg, ITYR 5 mg/kg; for Serum Free T3, Mean: vehicle 14.45; for Serum Free T4, Mean: vehicle 36.05; for Brain Free T3, Mean: vehicle 72.74; for Brain Free T4, Mean: vehicle 250.54
Procedure: Deaths were related to the surgical procedure.
At the end of the tests, animals were anesthetized with veterinary Pental (13.333 mg/kg) and cardiac blood was drawn for peripheral T3 (triiodothyronine) and T4 (thyroxine) levels. Brains were harvested for evaluating brain T3, T4 levels. Hormone levels in the sera and brains were measured by SunLong Biotech Mouse Ultrasensitivity total and free T3 and T4 ELISA Kits, employing producing a standard curve followed by actual measurement, in which OD levels obtained by spectrophotometer were converted, using the standard curve, to pg/ml values.

[9] = Novelty suppressed feeding test (NSFT) after 3 weeks ICV administration; settings: mice, ICV 3 weeks, compared to vehicle; ANCOVA with brain T3 as covariate

inhibition of the deiodinase activity (deiodination of T4) of DIO3 mimic compound A [1]: no inhibition
SMILES: Cc1cc(=O)[nH]c(=S)[nH]1 [MTU, 6-methyl-2-thiouracil]
inhibition of DIO1 [2]: inhibit
inhibition of DIO3 [3]: do not inhibit

inhibition of the deiodinase activity (deiodination of T4) of DIO3 mimic compound A [1]: no inhibition
SMILES: Cn1cc[nH]c1=S [MMI, 1-methyl-3H-imidazole-2-thione, reference compound]

inhibition of the deiodinase activity (deiodination of T4) of DIO3 mimic compound A [1]: no inhibition
SMILES: CCCc1cc(=O)[nH]c(=S)[nH]1 [PTU, 6-n-propyl-2-thiouracil]
inhibition of DIO1 [2]: inhibit
inhibition of DIO3 [3]: do not inhibit

inhibition of the deiodinase activity (deiodination of T4) of DIO3 mimic compound A [1]: inhibit; also recorded: Inhibition
SMILES: CN1C(=O)C(Br)=C(Br)C1=O [Compound C, 2,3-dibromo-N-methylmaleimide]

IC50 for inhibiting the DIO3 mimic [1]: micromolar range
SMILES: O=C(O)c1ccc(N2C(=O)C(Br)=C(Br)C2=O)cc1 [Compound 4]
reaction with the DIO3 mimic [1]: react stoichiometrically
cell viability [5]: No effect

Second part, the compound before the results:

SMILES: O=C1C(Br)=C(Br)C(=O)N1CCc1ccc(O)c(O)c1 [Compound 7]
cell density and cell morphology [4]: marked reduction in cell density and deformed cell morphology
cell viability [5]: significant reduction in cell viability

SMILES: O=C(O)CC(C(=O)O)N1C(=O)C(Br)=C(Br)C1=O (stereo not shown) [Compound 8]
cell density and cell morphology [4]: marked reduction in cell density and deformed cell morphology
cell viability [5]: significant reduction in cell viability

SMILES: O=C1C(Br)=C(Br)C(=O)N1Cc1ccccc1 [B, 2,3-dibromo-N-benzylmaleimide]
inhibition of the deiodinase activity (deiodination of T4) of DIO3 mimic compound A [1]: inhibit

SMILES: O=C(O)C(Cc1ccc(O)cc1)N1C(=O)C(Br)=C(Br)C1=O (stereo not shown) [Compound 3]
reaction with the DIO3 mimic [1]: react stoichiometrically
inhibition of the deiodinase activity (deiodination of T4) of DIO3 mimic compound A [1]: Inhibition
IC50 for inhibiting the DIO3 mimic [1]: micromolar range
cell viability [5]: low reduction in viability
solubility in water [6]: more soluble in water

SMILES: O=C(O)CI [IAA, iodoacetic acid]
inhibition of DIO1 [2]: inhibitor
inhibition of DIO3 [3]: cannot inhibit
inhibition of DIO2 [7]: cannot inhibit

SMILES: CCC(Cc1c(I)cc(I)c(N2C(=O)C(Br)=C(Br)C2=O)c1I)C(=O)O (stereo not shown) [Compound 6]
increase in brain free T3 levels ([8]; ICV 3 weeks, vs. vehicle): about 46%
change in brain free T3 levels (in words) ([8]; ICV 3 weeks, vs. vehicle): significant increase
Serum Free T3, Mean [8]: 12.23 pg/mL
Serum Free T4, Mean [8]: 35.75 ng/mL
Brain Free T3, Mean [8]: 84.30 pg/mL
Brain Free T4, Mean [8]: 244.11 ng/mL
cell viability [5]: low reduction in viability
latency to feed in the novelty suppressed feeding test [9]: reduced latency to feed

SMILES: O=C(O)C(Cc1cc(I)c(O)c(I)c1)N1C(=O)C(Br)=C(Br)C1=O (stereo not shown) [Compound 5]
change in brain free T3 levels (in words) ([8]; ICV 3 weeks, vs. vehicle): not significantly increased
Serum Free T3, Mean [8]: 12.33 pg/mL
Serum Free T4, Mean [8]: 37.00 ng/mL
Brain Free T3, Mean [8]: 81.98 pg/mL
Brain Free T4, Mean [8]: 262.86 ng/mL
cell density and cell morphology [4]: marked reduction in cell density and deformed cell morphology
cell viability [5]: significant reduction in cell viability
latency to feed in the novelty suppressed feeding test [9]: reduced latency to feed

Source: US11091434B2, “Type III deiodinase inhibitors and uses thereof” (HADASIT MEDICAL RESEARCH SERVICES AND DEVELOPMENT LTD., priority 2014, dated 2021)
